Reference: PMC6872814, “Functional interactions between nitrite reductase and nitric oxide reductase from Paracoccus denitrificans” (Scientific Reports, 2019)

Target: T1, cNOR (c-type nitric oxide reductase, NorB and NorC) (Paracoccus denitrificans, UniProt A1B4X6+Q51662)
T1 construct: gene Pden_2483; NorBC two-subunit complex, plasmid pNOREX in E. coli JM109 with pEC86, DDM-solubilised and purified; reconstituted in liposomes for the Km
T1 sequence (A1B4X6 1-462): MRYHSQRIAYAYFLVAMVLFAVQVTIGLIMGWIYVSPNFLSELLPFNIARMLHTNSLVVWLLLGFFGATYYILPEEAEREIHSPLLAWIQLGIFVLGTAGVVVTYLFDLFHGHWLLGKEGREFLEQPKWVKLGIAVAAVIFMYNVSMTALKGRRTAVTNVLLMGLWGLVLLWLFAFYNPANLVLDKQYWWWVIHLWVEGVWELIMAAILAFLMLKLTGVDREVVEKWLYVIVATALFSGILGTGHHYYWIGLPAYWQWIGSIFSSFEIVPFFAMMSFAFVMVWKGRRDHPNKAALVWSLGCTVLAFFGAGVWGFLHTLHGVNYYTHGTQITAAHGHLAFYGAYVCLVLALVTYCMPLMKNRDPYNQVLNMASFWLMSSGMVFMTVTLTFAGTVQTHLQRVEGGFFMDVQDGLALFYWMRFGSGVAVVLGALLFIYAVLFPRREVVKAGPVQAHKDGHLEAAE
T1 sequence (Q51662 2-150): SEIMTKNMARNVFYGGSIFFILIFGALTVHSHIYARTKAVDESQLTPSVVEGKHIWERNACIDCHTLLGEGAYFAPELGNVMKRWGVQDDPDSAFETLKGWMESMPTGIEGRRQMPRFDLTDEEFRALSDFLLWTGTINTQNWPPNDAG
Test: Clark-type NO electrode, inhibition of NO reduction, data not shown
Assay type: biochemical
Conditions: inhibitor at high (mM) concentrations; 50 mM HEPES pH 7.0, 50 mM KCl

Compound: O=NO [nitrite]
- Clark-type NO electrode, inhibition of NO reduction, data not shown: For nitrite, we see that it can inhibit cNOR activity, but only at high (mM)
